Tests used:
Type in all cases: cell-based
Design in all cases: dose or concentration left out as unconfirmed
Conditions in all cases: 96 hours
[1] = tested on: prostate tumor cell line DU-145; assay: Trypan blue exclusion viability assay, DU145
Method: (§1) MCF-7 is estrogen-responsive, while BT-20 is an estrogen-unresponsive cell line. NIH/3T3 and HFL are normal murine and human fibroblasts, respectively. MCF-7, BT-20, DLD-1 and H157 were grown in Dulbecco's modified Eagle's medium (DMEM) containing 10% fetal bovine serum supplemented with penicillin and streptomycin. DU145 was cultured in RPMI with 10% fetal bovine serum containing penicillin and streptomycin. […] All cell cultures were maintained at 37° C. in a humidified atmosphere of 5% CO2. Cells were treated with test compound at 2.5 mM concentration and cell viability was determined after 96 hours by the Trypan blue exclusion method.

[2] = tested on: colorectal carcinoma cell line DLD-1; assay: Trypan blue exclusion viability assay, DLD-1
Method: as §1

[3] = tested on: breast tumor cell line BT-20; assay: Trypan blue exclusion viability assay, BT20
Method: as §1

[4] = tested on: non-small cell lung carcinoma cell line H157; assay: Trypan blue exclusion viability assay, H157
Method: as §1

Row | SMILES | Cell death, DU145 [1] | Cell death, DLD-1 [2] | Cell death, BT20 [3] | Cell death, H157 [4]
1 | O=S(=O)(/C=C/c1ccc(Br)cc1)Cc1ccc(C(F)(F)F)cc1 [Example 3, (E)-4-Bromostyryl-4-trifluoromethylbenzylsulfone] | + (5-10%: = +) | + (5-10%: = +) | ++ (10-15% = ++) | –
2 | O=S(=O)(/C=C/c1ccc(Cl)cc1)Cc1ccc(Cl)c(Cl)c1 [Example 7, (E)-4-Chlorostyryl-3,4-dichlorobenzylsulfone] | − (0% = −) | – | ++ (10-15% = ++) | –
3 | O=S(=O)(/C=C/c1ccc(Br)cc1)Cc1ccc(Cl)c(Cl)c1 [Example 8, (E)-4-Bromostyryl-3,4-dichlorobenzylsulfone] | − (0% = −) | − (0% = −) | − (0% = −) | –
4 | O=S(=O)(/C=C/c1ccc(F)cc1)Cc1ccc(I)cc1 [Example 19, (E)-4-Fluorostyryl-4-iodobenzylsulfone] | +++++ (Above 80% = +++++) | +++++ (Above 80% = +++++) | +++++ (Above 80% = +++++) | +++++ (Above 80% = +++++)
5 | O=S(=O)(/C=C/c1ccc(I)cc1)Cc1ccc(Cl)cc1 [Example 21, (E)-4-Iodostyryl-4-chlorobenzylsulfone] | ++ (10-15% = ++) | ++ (10-15% = ++) | ++ (10-15% = ++) | ++ (10-15% = ++)
6 | O=S(=O)(/C=C/c1ccc(I)cc1)Cc1ccc(Br)cc1 [Example 22, (E)-4-Iodostyryl-4-bromobenzylsulfone] | ++ (10-15% = ++) | ++ (10-15% = ++) | ++ (10-15% = ++) | ++ (10-15% = ++)
7 | O=S(=O)(/C=C/c1ccc(Cl)cc1)Cc1ccc(I)cc1 [Example 23, (E)-4-Chlorostyryl-4-iodobenzylsulfone] | ++ (10-15% = ++) | ++ (10-15% = ++) | +++ (40-50% = +++) | ++ (10-15% = ++)
8 | O=[N+]([O-])c1ccccc1/C=C/S(=O)(=O)Cc1ccc(I)cc1 [Example 25, (E)-2-Nitrostyryl-4-iodobenzylsulfone] | ++ (10-15% = ++) | ++ (10-15% = ++) | ++ (10-15% = ++) | ++ (10-15% = ++)
9 | O=[N+]([O-])c1ccccc1/C=C/S(=O)(=O)Cc1ccc(F)cc1 [Example 29, (E)-2-nitrostyryl-4-fluorobenzylsulfone] | + (5-10%: = +) | + (5-10%: = +) | + (5-10%: = +) | + (5-10%: = +)
10 | O=[N+]([O-])c1cccc(/C=C/S(=O)(=O)Cc2ccc(F)cc2)c1 [Example 30, (E)-3-nitrostyryl-4-fluorobenzylsulfone] | + (5-10%: = +) | + (5-10%: = +) | + (5-10%: = +) | + (5-10%: = +)
11 | O=[N+]([O-])c1ccc(/C=C/S(=O)(=O)Cc2ccc(F)cc2)cc1 [Example 31, (E)-4-nitrostyryl-4-fluorobenzylsulfone] | ++++ (50-60% = ++++) | ++++ (50-60% = ++++) | ++++ (50-60% = ++++) | ++++ (50-60% = ++++)
12 | O=S(=O)(/C=C/c1ccccc1C(F)(F)F)Cc1ccc(F)cc1 [Example 32, (E)-2-trifluoromethylstyryl-4-fluorobenzylsulfone] | + (5-10%: = +) | + (5-10%: = +) | + (5-10%: = +) | + (5-10%: = +)
13 | O=S(=O)(/C=C/c1cccc(C(F)(F)F)c1)Cc1ccc(F)cc1 [Example 33, (E)-3-trifluoromethylstyryl-4-fluorobenzylsulfone] | + (5-10%: = +) | + (5-10%: = +) | + (5-10%: = +) | + (5-10%: = +)
14 | O=S(=O)(/C=C/c1ccc(C(F)(F)F)cc1)Cc1ccc(F)cc1 [Example 34, (E)4-trifluoromethylstyryl-4-fluorobenzylsulfone] | + (5-10%: = +) | + (5-10%: = +) | + (5-10%: = +) | + (5-10%: = +)
15 | O=S(=O)(/C=C/c1ccc(F)cc1C(F)(F)F)Cc1ccc(F)cc1 [Example 35, (E)-2-trifluoromethy-4-fluorostyryl-4-fluorobenzylsulfone] | + (5-10%: = +) | + (5-10%: = +) | + (5-10%: = +) | + (5-10%: = +)
16 | O=[N+]([O-])c1ccccc1/C=C/S(=O)(=O)Cc1ccc(Cl)cc1 [Example 36, (E)-2-nitrostyryl-4-chlorobenzylsulfone] | + (5-10%: = +) | + (5-10%: = +) | + (5-10%: = +) | + (5-10%: = +)
17 | O=[N+]([O-])c1cccc(/C=C/S(=O)(=O)Cc2ccc(Cl)cc2)c1 [Example 37, (E)-3-nitrostyryl-4-chlorobenzylsulfone] | + (5-10%: = +) | + (5-10%: = +) | + (5-10%: = +) | + (5-10%: = +)
18 | O=[N+]([O-])c1ccc(/C=C/S(=O)(=O)Cc2ccc(Cl)cc2)cc1 [Example 38, (E)-4-nitrostyryl-4-chlorobenzylsulfone] | ++++ (50-60% = ++++) | ++++ (50-60% = ++++) | ++++ (50-60% = ++++) | ++++ (50-60% = ++++)
19 | O=S(=O)(/C=C/c1ccccc1C(F)(F)F)Cc1ccc(Cl)cc1 [Example 39, (E)-2-trifluoromethylstyryl-4-chlorobenzylsulfone] | + (5-10%: = +) | + (5-10%: = +) | + (5-10%: = +) | + (5-10%: = +)
20 | O=S(=O)(/C=C/c1cccc(C(F)(F)F)c1)Cc1ccc(Cl)cc1 [Example 40, (E)-3-trifluoromethylstyryl-4-chlorobenzylsulfone] | + (5-10%: = +) | + (5-10%: = +) | + (5-10%: = +) | + (5-10%: = +)
21 | O=S(=O)(/C=C/c1ccc(C(F)(F)F)cc1)Cc1ccc(Cl)cc1 [Example 41, (E)-4-trifluoromethylstyryl-4-chlorobenzylsulfone] | + (5-10%: = +) | + (5-10%: = +) | + (5-10%: = +) | + (5-10%: = +)
22 | O=S(=O)(/C=C/c1ccc(F)cc1C(F)(F)F)Cc1ccc(Cl)cc1 [Example 42, (E)-2-trifluoromethyl-4-fluorostyryl-4-chlorobenzylsulfone] | + (5-10%: = +) | + (5-10%: = +) | + (5-10%: = +) | + (5-10%: = +)
23 | Cc1cc(/C=C/S(=O)(=O)Cc2ccc(Cl)cc2)ccc1F [Example 43, (E)-3-methyl-4-fluorostyryl-4-chlorobenzylsulfone] | + (5-10%: = +) | + (5-10%: = +) | + (5-10%: = +) | + (5-10%: = +)

— patent US6762207B1, “(E)-styryl sulfone anticancer agents” (priority 1999, dated 2004)
